Results on six molecules are retold here after patent publication US20050261189A1, “Methods of promoting cardiac cell proliferation” (Hydra Biosciences, Inc., priority 2004, published 2005).

The subject of data set [1] is neonatal rat cardiomyocytes. Briefly: Neonatal rat cardiomyocyte proliferation, DNA synthesis by BrdU incorporation. Type of data set: cell-based. The conditions noted are these: for cardiomyocyte proliferation: 48 hours, FIG. 22. The procedure:
Neonatal rat cardiomyocytes were isolated from postnatal day 2 Wistar rat pups. Rat pups were anesthetized by hypothermia in ice water for 10 min and euthanized by decapitation. Hearts were isolated and placed in PBS-G (KCl 2 g/L; KH2PO4 2 g/L; NaCl 80 g/L; Na2HPO4.7H20 21.6 g/L; D-glucose 10 g/L) on ice. The atria were removed and ventricles were washed in PBS-G and cut into pieces smaller than 2 millimeters. PBS-G containing 119.6 units/ml collagenase type 2 and 0.2 mg/ml pancreatin was warmed to 37° C. Amounts of collagenase were adjusted for batch variations in units/mg activity. Ventricles were dissociated in collagenase/pancreatin solution for 15 minutes on a rotator at 37° C. Tissue was dispersed gently by pipetting and allowed to settle for 5 min at room temperature. Cell suspension from first dissociation was discarded and replaced with fresh collagenase/pancreatin solution, and incubated at 37° C. for 15 minutes on an orbital shaker. Tissue was again dispersed and allowed to settle. The cell supension was transferred to a new tube and incubated an additional 5 min at 37° C., and the digestion was stopped by addition of an equal volume of DMEM/20% NCS and stored on ice. Digestion of the ventricular tissue was repeated 3 additional times and supernatants were collected and stored on ice in equal volumes of DMEM/20% NCS.
Cells from all the fractions were collected at 200 RCF for 6 min at room temperature. Cell pellets were resuspended in 2 ml ADS buffer (6.8 g/L NaCl, 0.4 g/L KCl, 1.0 g/L D-glucose, 1.5 g/L NaH2PO4, 4.75 g/L HEPES, 0.1 MgSO4.7H2O). One ml of cell suspension was applied to two Percoll gradients set up in the following manner. The top Percoll gradient (density 1.059 g/ml) was generated by mixing Percoll stock with ADS buffer in a 9:11 ratio, and the bottom Percoll gradient (density 1.082 g/ml) was made by mixing Percoll stock and ADS buffer in a 13:7 ratio. Four ml Top Percoll was added to a 15 ml conical tube, and three ml Bottom Percoll was laid below it by placing a pipet tip at the bottom of the tube, then carefully withdrawing it as the solution was delivered. The gradients were centrifuged at 3000 rpm for 30 consecutive minutes at room temperature. Cardiac non-myocytes were located above the top percoll buffer while cardiac myocytes were located at the interface of the top and bottom percoll layers. Blood and undissociated tissue were found at the bottom of the tube. Cardiac myocytes were collected after the top percoll was aspirated, and resuspended in DMEM/10% FBS, then centrifuged at 200 RCF for 6 min. Pelleted myocytes were resuspended in plating medium containing DMEM with 25 mM HEPES, 5% horse serum, 4 mM glutamine, penicillin and streptomycin. Four volumes of DMEM/10% FBS were added and the cell suspension was passed through a 40 uM cell strainer. Cells were pre-plated in 10 cm tissue culture plates for 1 hour at 37° C. Unattached cells were collected from the medium and centrifuged at 200 RCF for 6 min. Pelleted myocytes were resuspended in plating medium containing 10 uM AraC at a density of 100000 cells/ml and 200 ul/well were distributed into 96 well plates which had previously been coated with 0.1% gelatin/12.5 ug/ml fibronectin at 37° C. for more than 4 hours. Plated cells were grown for at least 48 hours at 37° C. prior to use in further experiments.
Briefly, the experiments summarized in FIG. 15 and FIG. 16 were conducted as follows. Neonatal rat cardiomyocytes were prepared and cultured as outlined in example 1. […]

For a further data set, the system named is beta-catenin. Briefly: Nuclear beta-catenin assay in rat neonatal cardiomyocytes. Type of data set: cell-based. The conditions noted are these: 16 hours, FIG. 23. The source says: We have used a nuclear beta-catenin assay to readily identify Wnt-related polypeptides that promote Wnt signaling via the canonical Wnt signaling pathway in cardiac cells. Specifically, and by way of example, we conducted a nuclear beta-catenin assay in rat neonatal cardiomyocytes to identify Wnt-related polypeptides that promote Wnt signaling via the canonical Wnt signaling pathway in cardiomyocytes. Such an assay conducted in neonatal or adult cardiac cells including, but not limited to, cardiomyocytes can be used to identify candidate agents that are capable of promoting Wnt signaling via the canonical Wnt signaling pathway in cardiac cells.
Briefly, neonatal cardiomyocytes were prepared and plated as outlined in detail above. Cells were washed two times with serum-free medium and were incubated in medium containing either a recombinant Wnt-related polypeptide, or some control factor. Cells were incubated for 16 hours, were fixed in 4% Formaldehye for 10 minuntes at room temperature, and were permeabilized with 0.2% Triton X-100 for 5 minutes. […] Although beta-catenin is not typically detectable by immunocytochemistry in the absence of active Wnt signaling, the nuclei were counterstained with 4′,6-diamidino-2-phenylindole (DAPI) to specifically confirm that the detected beta-catenin expression was localized to the nucleus. […]
Neonatal cardiomyocytes were cultured under one of the following conditions: medium alone (negative control), 10 mM LiCl, 2% fetal calf serum (FCS), 10% fetal calf serum (FCS), 25 ng/ml recombinant mouse Wnt5A (Catalog# 645-WN/CF), 50 ng/ml recombinant mouse Wnt5A (Catalog# 645-WN/CF), 100 ng/ml recombinant mouse Wnt5A (Catalog# 645-WN/CF), 25 ng/ml recombinant mouse Wnt3A (Catalog # 1324-WN/CF), 50 ng/ml recombinant mouse Wnt3A (Catalog # 1324-WN/CF), or 100 ng/ml recombinant mouse Wnt3A (Catalog # 1324-WN/CF). Following culture under one of the foregoing conditions, cells were analyzed by immunocytochemistry for expression of beta-catenin protein, and nuclear localization was verified by counterstaining the cells with DAPI. […]

For a further data set, the system named is β-catenin. Briefly: β-catenin stabilization by immunocytochemistry in neonatal rat cardiomyocytes. Type of data set: cell-based. The conditions noted are these: 48 hours in neonatal base medium; recombinant Wnt3A 167 ng/ml or 500 ng/ml, or serum; FIG. 19. The procedure: Briefly, neonatal rat cardiomyocytes were treated with either serum or with recombinant Wnt3A (e.g., 167 ng/ml or 500 ng/ml) in neonatal base medium for 48 hours. The treated cells were fixed, permeablilized with 0.5% Triton-X-100 for 15 minutes, and blocked in 5% goat serum in PBS-T for one hour. Mouse anti-β-catenin antibody (BD-Pharmingen) diluted 1:250 were incubated on cells for one hour. Cells were washed 3 times in PBS-T and incubated one hour in Alexa 594 goat anti-mouse antibody (Molecular Probes) at a dilution of 1:200.

In data set [2] the test system is unfractionated adult cardiac cells. Briefly: Viable cell count, unfractionated adult cardiac cells. Type of data set: cell-based, mouse. Conditions: unfractionated (whole heart) preparations, 3-4 days culture; recombinant Wnt3A at 50 ng/ml; FIGS. 24, 25a. The procedure: (§1) Whole hearts were obtained from adult mice (greater than 5 weeks of age). Cardiac tissue was minced and washed three times to remove blood. Cardiac cells were dissociated with pancreatin and collagenase for 15 minutes at 37° C. and washed. Following dissociation the unfractionated cells were either plated, or fractionated into a Sca1+ and Sca1− population prior to plating. These three cardiac cell populations (unfractionated cell preparation; Sca1+cell preparation; Sca1− cell preparation) were cultured in the presence of various Wnt-related compositions. Specifically, the cardiac cell preparations were cultured for 3-4 days in either L-cell conditioned medium alone; LWW60 conditioned medium; or culture medium containing purified Wnt3A protein. Following 3-4 days in culture, the cardiac cells were washed with PBS and trypsinized, and viable cells were counted.

The next data set deals with Sca1+ cell preparation. Briefly: Viable cell count, Sca1+ adult cardiac cell preparation. Type of data set: cell-based, mouse. The conditions noted are these: Sca1+ cell preparations, 3-4 days culture; recombinant Wnt3A at 50 ng/ml; FIG. 25a. The procedure:
as §1

In data set [3] the test system is one or more non-cardiac cells types. Conditions: cited from earlier work.
The test system of data set [4] is neonatal rat cardiomyocytes. Briefly: Hypertrophic response: ANF and tropomyosin immunocytochemistry in neonatal rat cardiomyocytes. Conditions: Wnt3A 150 ng/ml, phenylephrine as hypertrophic stimulus.
Description: Briefly, neonatal rat cardiomyocytes were treated with serum or phenylephrine (two agents known to induce hypertrophy), or were treated with 150 ng/ml recombinant Wnt3A. Following treatment, the cells were analyzed by immunocytochemistry for expression of atrial naturietic factor (ANF) (rabbit anti-ANF/Peninsula laboratories/Bachem) or expression of tropomyosin (CH1 antibody available from Developmental Hybridoma).
The test system of data set [5] is Wnt3A induced cardiomyocyte proliferation. Briefly: Wnt antagonists co-administered with Wnt3A-L-cell supernatant, cardiomyocyte proliferation. The class given is cell-based, rat. The conditions noted are these: 100 ng/ml of the Wnt inhibitor; FIG. 18. The procedure:
To confirm that Wnt3A was responsible for the stimulation of cardiomyocyte proliferation observed in FIG. 17, we co-administered supernatant from Wnt3A expressing mouse L-cells and the Wnt antagonist dkk (recombinant dkk obtained from R&D Systems).
Nevertheless, the inhibition of Wnt3A induced cardiomyocyte proliferation by dkk supports the conclusion that Wnt3A is the active cardiomyocyte proliferative factor in the conditioned medium.
The experiments were conducted and analyzed as detailed above in examples 2 and 3.

[6] abbreviates: recombinant mouse Wnt protein 25 ng/ml-100 ng/ml.

As to `[Cl-].[Li+]` [LiCl, lithium chloride, reference compound], the cardiomyocyte proliferation result in data set [1] (LiCl 10 mM, 5 mM or 2.5 mM) is “promoted cardiomyocyte proliferation”. The “beta-catenin nuclear localization (percentage of cells with nuclear beta-catenin staining)” value in the data set with beta-catenin (10 mM LiCl, versus medium alone or 2% or 10% serum) is recorded as “promoted beta-catenin nuclear localization”.

For Wnt3A, in data set [1] (higher doses of Wnt3A, FIG. 16), the “cardiomyocyte proliferation level compared with serum” value is “comparable to serum”. In data set [1] (recombinant Wnt3A 150, 50 or 17 ng/ml), the cardiomyocyte proliferation result was “promoted cardiomyocyte proliferation”. In data set [1] (recombinant Wnt3A dilution series, FIG. 16), the “cardiomyocyte proliferation, dilution series” value is “promoted cardiomyocyte proliferation in a dose dependent manner”. In addition, in data set [1] (recombinant mouse Wnt3A 0.06, 0.4, 2.3, 14, 83 and 500 ng/ml, FIG. 15), the “cardiomyocyte proliferation, as measured by incorporation of BrdU” value is on record as “statistically significant, dose dependent increase in cardiomyocyte proliferation”. Also, in the data set on β-catenin, the “stabilization of β-catenin (increased detection and nuclear localization), Wnt signaling” value is listed as “resulted in stabilization of β-catenin”. In the data set on beta-catenin (setting [6]), the “beta-catenin nuclear localization (percentage of cells with nuclear beta-catenin staining)” value was “promoted beta-catenin nuclear localization”. Moreover, the “number of viable cells” value (in data set [2]; in the data set with Sca1+ cell preparation) was “also increased the number of viable cells” throughout. In addition, the “Wnt signaling pathway shown in one or more non-cardiac cell types” value in data set [3] is “signal via the canonical pathway”.

`CNC[C@H](O)c1cccc(O)c1` [phenylephrine]: the ANF expression increased result in data set [4] (FIG. 20) is recorded as “increased”. Further, the “change in cardiomyocyte cell size and shape” value in data set [4] (FIG. 21) is “vastly different cell shape, size, and morphology”.

B1: FRP2: Wnt inhibitor, secreted frizzled-related protein class (protein, UniProt Q96HF1 25-295, looked up)
Secreted frizzled-related …: LFLFGQPDFSYKRSNCKPIPANLQLCHGIEYQNMRLPNLLGHETMKEVLEQAGAWIPLVMKQCHPDTKKFLCSLFAPVCLDDLDETIQPCHSLCVQVKDRCAPVMSAFGFPWPDMLECDRFPQDNDLCIPLASSDHLLPATEEAPKVCEACKNKNDDDNDIMETLCKNDFALKIKVKEITYINRDTKIILETKSKTIYKLNGVSERDLKKSVLWLKDSLQCTCEEMNDINAPYLVMGQKQGGELVITSVKRWQKGQREFKRISRSIRKLQC
Consider B1, for which the “abolition of Wnt3A induced cardiomyocyte proliferation” value in data set [5] was “did not”.

B2: FRP3: Wnt inhibitor, secreted frizzled-related protein class (protein, UniProt Q92765 33-325, looked up)
Secreted frizzled-related …: AACEPVRIPLCKSLPWNMTKMPNHLHHSTQANAILAIEQFEGLLGTHCSPDLLFFLCAMYAPICTIDFQHEPIKPCKSVCERARQGCEPILIKYRHSWPENLACEELPVYDRGVCISPEAIVTADGADFPMDSSNGNCRGASSERCKCKPIRATQKTYFRNNYNYVIRAKVKEIKTKCHDVTAVVEVKEILKSSLVNIPRDTVNLYTSSGCLCPPLNVNEEYIIMGYEDEERSRLLLVEGSIAEKWKDRLGKKVKRWDMKLRHLGLSKSDSSNSDSTQSQKSGRNSNPRQARN
For B2, the “abolition of Wnt3A induced cardiomyocyte proliferation” value in data set [5] is given as “did not”.

B3: Wnt5A: recombinant mouse Wnt5A (Catalog# 645-WN/CF) (protein, UniProt P22725 62-380, looked up)
Protein Wnt-5a: IIGAQPLCSQLAGLSQGQKKLCHLYQDHMQYIGEGAKTGIKECQYQFRHRRWNCSTVDNTSVFGRVMQIGSRETAFTYAVSAAGVVNAMSRACREGELSTCGCSRAARPKDLPRDWLWGGCGDNIDYGYRFAKEFVDARERERIHAKGSYESARILMNLHNNEAGRRTVYNLADVACKCHGVSGSCSLKTCWLQLADFRKVGDALKEKYDSAAAMRLNSRGKLVQVNSRFNSPTTQDLVYIDPSPDYCVRNESTGSLGTQGRLCNKTSEGMDGCELMCCGRGYDQFKTVQTERCHCKFHWCCYVKCKKCTEIVDQFVCK
For B3, the “beta-catenin nuclear localization (percentage of cells with nuclear beta-catenin staining)” value in the data set with beta-catenin (setting [6]) is on record as “did not promote beta-catenin nuclear localization”. Also, the “Wnt signaling pathway shown in one or more non-cardiac cell types” value in data set [3] was “signal via the non-canonical signaling pathway”.
